Where a name gives a salt, the structure may show the parent alone.
molecular target: T1, Rat brain protein farnesyltransferase (Rattus norvegicus, UniProt Q02293+Q04631); assay: % inhibition of farnesylation, scintillation proximity assay with biotin-K Ras B fragment; type: biochemical; conditions: Table 1; 1 × 10^-5 M
T1 construct: Rat brain protein farnesyltransferase activity is measured; from tissue; host or cells: rat brain
Procedure, shortened: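 Rat brain enzyme, purified through three steps, in a scintillation proximity assay kit with biotin-K Ras B fragment substrate at 0.1 mM final. Value is % inhibition of farnesylation.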

T1 sequence (Q02293 whole entry, the tested form may be a part, one chain of several): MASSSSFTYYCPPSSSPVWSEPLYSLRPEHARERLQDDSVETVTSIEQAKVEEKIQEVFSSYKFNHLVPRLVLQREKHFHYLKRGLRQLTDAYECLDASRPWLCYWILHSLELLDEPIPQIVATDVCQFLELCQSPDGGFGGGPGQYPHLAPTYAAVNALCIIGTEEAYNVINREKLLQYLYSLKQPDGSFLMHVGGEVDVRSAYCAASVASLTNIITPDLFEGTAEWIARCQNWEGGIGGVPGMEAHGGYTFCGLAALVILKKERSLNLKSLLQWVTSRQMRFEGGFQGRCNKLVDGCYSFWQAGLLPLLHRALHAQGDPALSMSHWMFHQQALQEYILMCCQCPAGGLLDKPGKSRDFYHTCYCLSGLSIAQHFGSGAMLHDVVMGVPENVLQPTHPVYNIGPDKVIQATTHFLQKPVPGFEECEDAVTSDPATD

Row | Compound | % inhibition at 1 × 10^-5 M [%]
1 | CSCC[C@H](NC(=O)c1ccc(CNCC(C)(C)CN(C)C)cc1-c1ccccc1)C(=O)O [Example 639] | 44

same assay, conditions: Table 2; 1 × 10^-6 M

Row | Compound | % inhibition at 1 × 10^-6 M [%]
2 | CSCC[C@H](NC(=O)c1ccc(CNCCC2CCCCC2)cc1-c1ccccc1C)C(=O)O.O=C(O)C(F)(F)F [Example 607] | 96
3 | CSCC[C@H](NC(=O)c1ccc(CN(CCC2CCCCC2)C(=O)N(C)C)cc1-c1ccccc1C)C(=O)O [Example 610] | 94
4 | CSCC[C@H](NC(=O)c1ccc(CN[C@H](C)CC2CCCCC2)cc1-c1ccccc1C)C(=O)O [Example 613] | 97
5 | CSCC[C@H](NC(=O)c1ccc(CN[C@H](CO)CC2CCCCC2)cc1-c1ccccc1C)C(=O)O [Example 617] | 99
6 | CCS(=O)(=O)C[C@H](CC1CCCCC1)NCc1ccc(C(=O)N[C@@H](CCSC)C(=O)O)c(-c2ccccc2C)c1 [Example 620] | 98
7 | CSCC[C@H](NC(=O)c1ccc(CNCCS)cc1-c1ccccc1)C(=O)O [Example 626] | 61
8 | CSCC[C@H](NC(=O)c1ccc(CNCCSC(C)(C)C)cc1-c1ccccc1)C(=O)O [Example 627] | 85
9 | CSCC[C@H](NC(=O)c1ccc(CNCC(O)CO)cc1-c1ccccc1)C(=O)O (stereo partly drawn) [Example 632] | 43
10 | CSCCC(CO)NCc1ccc(C(=O)N[C@@H](CCSC)C(=O)O)c(-c2ccccc2)c1 (stereo partly drawn) [Example 633] | 32
11 | CSCC[C@H](NC(=O)c1ccc(CNCCN(C(C)C)C(C)C)cc1-c1ccccc1)C(=O)O [Example 636] | 72
12 | CSCC[C@H](NC(=O)c1ccc(CNCCN2CCCC2)cc1-c1ccccc1)C(=O)O [Example 641] | 34
13 | CSCC[C@H](NC(=O)c1ccc(CNc2ccccc2F)cc1-c1ccccc1)C(=O)O [Example 642] | 48
14 | CSCC[C@H](NC(=O)c1ccc(CNc2ccccc2C(N)=O)cc1-c1ccccc1)C(=O)O [Example 644] | 54
15 | CSCC[C@H](NC(=O)c1ccc(CNc2ccccc2Oc2ccccc2)cc1-c1ccccc1)C(=O)O [Example 645] | 37
16 | CCOC(=O)c1ccc(NCc2ccc(C(=O)N[C@@H](CCSC)C(=O)O)c(-c3ccccc3)c2)cc1 [Example 646] | 58
17 | CSCC[C@H](NC(=O)c1ccc(CN(CCC#N)Cc2ccccc2)cc1-c1ccccc1)C(=O)O [Example 649] | 86
18 | COc1ccccc1CNCc1ccc(C(=O)N[C@@H](CCSC)C(=O)O)c(-c2ccccc2)c1 [Example 650] | 68

same assay, conditions: Table 3; 1 × 10^-7 M

Row | Compound | % inhibition at 1 × 10^-7 M [%]
19 | CSCC[C@H](NC(=O)c1ccc(CN[C@@H](CO)C2CCCCC2)cc1-c1ccccc1C)C(=O)O [Example 604] | 86
20 | CSCC[C@H](NC(=O)c1ccc(CN(CCC2CCCCC2)C(C)=O)cc1-c1ccccc1C)C(=O)[O-].[Li+] [Example 609] | 95
21 | CSCC[C@H](NC(=O)c1ccc(CN(CCC2CCCCC2)S(C)(=O)=O)cc1-c1ccccc1C)C(=O)O [Example 611] | 95
22 | CCCC[C@H](CC1CCCCC1)NCc1ccc(C(=O)N[C@@H](CCSC)C(=O)O)c(-c2ccccc2C)c1 [Example 615] | 94
23 | CSCC[C@H](NC(=O)c1ccc(CNC(CC2CCCCC2)C2CCCCC2)cc1-c1ccccc1C)C(=O)[O-].[Li+] (stereo partly drawn) [Example 616] | 95
24 | CSCC[C@H](NC(=O)c1ccc(CN[C@@H](CO)CC2CCCCC2)cc1-c1ccccc1C)C(=O)O [Example 618] | 89
25 | CCS(=O)(=O)C[C@H](CC1CCCCC1)NCc1ccc(C(=O)N[C@@H](CCS(C)(=O)=O)C(=O)O)c(-c2ccccc2C)c1 [Example 621] | 98
26 | CSCC[C@H](NC(=O)c1ccc(CN[C@H](CSC(C)(C)C)CC2CCCCC2)cc1-c1ccccc1C)C(=O)O [Example 622] | 95
27 | CSCC[C@H](NC(=O)c1ccc(CN[C@H](CSc2ccccc2)CC2CCCCC2)cc1-c1ccccc1C)C(=O)O [Example 623] | 96

same assay, conditions: Table 4; 1 × 10^-8 M

Row | Compound | % inhibition at 1 × 10^-8 M [%]
28 | CSCC[C@H](NC(=O)c1ccc(CN(CCC2CCCCC2)Cc2ccccc2)cc1-c1ccccc1C)C(=O)[O-].[Li+] [Example 605] | 68
29 | CSCC[C@H](NC(=O)c1ccc(CN(C)CCC2CCCCC2)cc1-c1ccccc1C)C(=O)[O-].[Li+] [Example 608] | 91
30 | CSCC[C@H](NC(=O)c1ccc(CN(CCC2CCCCC2)S(=O)(=O)c2ccccc2)cc1-c1ccccc1C)C(=O)O [Example 612] | 96
31 | CC[C@H](CC1CCCCC1)NCc1ccc(C(=O)N[C@@H](CCSC)C(=O)O)c(-c2ccccc2C)c1 [Example 614] | 92
32 | C=C[C@H](CC1CCCCC1)NCc1ccc(C(=O)N[C@@H](CCSC)C(=O)O)c(-c2ccccc2C)c1 [Example 619] | 95

same assay, conditions: read-out: % inhibition at 1 × 10^-6 M

Row | Compound | inhibition at 1 µM [%]
33 | CSCC[C@H](NC(=O)c1ccc(COCCCc2ccccc2)cc1-c1ccccc1C)C(=O)O [Example 595, N-[4-(3-phenylpropoxymethyl)-2-(2-methylphenyl)benzoyl]methionine lithium salt] | 97

same assay, conditions: read-out: % inhibition at 1 × 10^-7 M

Row | Compound | inhibition at 0.1 µM [%]
34 | CSCC[C@H](NC(=O)c1ccc(COCCc2cccc3ccccc23)cc1-c1ccccc1C)C(=O)O [Example 592, N-[4-(2-naphth-1-ylethoxymethyl)-2-(2-methylphenyl)benzoyl]methionine lithium salt] | 93
35 | CSCC[C@H](NC(=O)c1ccc(COCCc2ccc3ccccc3c2)cc1-c1ccccc1C)C(=O)O [Example 593, N-[4-(2-naphth-2-ylethoxymethyl)-2-(2-methylphenyl)benzoyl]methionine lithium salt] | 86
36 | CSCC[C@H](NC(=O)c1ccc(COCCC2CCCCC2)cc1-c1ccccc1C)C(=O)O [Example 594, N-[4-(2-cyclohexylethoxymethyl)-2-(2-methylphenyl)benzoyl]methionine lithium salt] | 95
37 | CSCC[C@@H](C(=O)O)N(C)C(=O)c1ccc(COCCCC2CCCCC2)cc1-c1ccccc1C [Example 597, N-[4-(3-cyclohexylpropoxymethyl)-2-(2-methylphenyl)benzoyl]-N-methylmethionine lithium salt] | 75

same assay, conditions: read-out: % inhibition at 1 × 10^-7 M; Table 3; 1 × 10^-7 M

Row | Compound | inhibition at 0.1 µM [%]
38 | CSCC[C@H](NC(=O)c1ccc(COCCCCC2CCCCC2)cc1-c1ccccc1C)C(=O)O [Example 600] | 93
39 | CSCC[C@H](NC(=O)c1ccc(COCCCCc2ccccc2)cc1-c1ccccc1C)C(=O)O [Example 601] | 92

same assay, conditions: read-out: % inhibition at 1 × 10^-8 M

Row | Compound | inhibition at 0.01 µM [%]
40 | CSCC[C@H](NC(=O)c1ccc(COCCc2ccc(Cl)cc2Cl)cc1-c1ccccc1C)C(=O)O [Example 591, N-[4-(2-(2,4-dichlorophenyl)ethoxymethyl)-2-(2-methylphenyl)benzoyl]methionine lithium salt] | 82
41 | CSCC[C@H](NC(=O)c1ccc(COCCCC23CC4CC(CC(C4)C2)C3)cc1-c1ccccc1C)C(=O)O [Example 599, N-[4-(3-adamant-1-ylpropoxymethyl)-2-(2-methylphenyl)benzoyl]methionine lithium salt] | 86

same assay, conditions: read-out: % inhibition at 1 × 10^-8 M; Table 4; 1 × 10^-8 M

Row | Compound | inhibition at 0.01 µM [%]
42 | CCSC[C@H](CC1CCCCC1)OCc1ccc(C(=O)N[C@@H](CCSC)C(=O)O)c(-c2ccccc2C)c1 [Example 606, Lithium Salt] | 93

— patent publication US6204293A, “Inhibitors of protein isoprenyl transferases” (University of Pittsburgh, priority 1998, dated 2001)
